Data published in patent publication US8952024B2, “Herbicidal pyrimidone derivatives” (E I du Pont de Nemours and Company, priority 2009, dated 2015).

Experiments:
Type in all cases: in vivo
[1] = system: morningglory (Ipomoea spp.); assay: Test A pre-/postemergence plant response
Procedure, shortened: (§1)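 Both pre- and postemergence treatments are applied simultaneously, using chemicals formulated in a non-phytotoxic solvent mixture with surfactant. Postemergence plants are 2–10 cm high with one to two leaves. After approximately ten days in a greenhouse, injury is scored visually from 0 (none) to 100 (complete control) relative to untreated plants.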

[2] = system: barnyardgrass (Echinochloa crus-galli); assay: Test A pre-/postemergence plant response
Procedure, shortened: as §1

[3] = system: velvetleaf (Abutilon theophrasti); assay: Test A pre-/postemergence plant response
Procedure, shortened: as §1

corn (Zea mays) = assay: Test A pre-/postemergence plant response
Procedure, shortened: as §1

[4] = system: wheat (Triticum aestivum); assay: Test A pre-/postemergence plant response
Procedure, shortened: as §1

[5] = system: large crabgrass (Digitaria sanguinalis); assay: Test A pre-/postemergence plant response
Procedure, shortened: as §1

[6] = system: pigweed (Amaranthus retroflexus); assay: Test A pre-/postemergence plant response
Procedure, shortened: as §1

[7] = system: giant foxtail (Setaria faberii); assay: Test A pre-/postemergence plant response
Procedure, shortened: as §1

[8] = system: barnyardgrass (Echinochloa crus-galli); assay: Test B flooded paddy test; settings: for Plant response rating, Flood, Barnyardgrass: 250 g ai/ha, flooded paddy test, visual rating on 0 to 100 scale (0 no effect, 100 complete control) after 13 to 15 days; for Plant response rating, Barnyardgrass: Flood (flooded paddy test), 13 to 15 days
Procedure, shortened: (§2)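 Greenhouse-held for 13 to 15 days, treated pots were compared visually with controls and scored 0–100 (0, no effect). Treatment had been made into paddy water kept at 3 cm above the soil, with plants at the 2-leaf stage.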

[9] = system: umbrella sedge (Cyperus difformis); assay: Test B flooded paddy test; settings: for Plant response rating, Flood, Sedge, Umbrella: 250 g ai/ha, flooded paddy test, visual rating on 0 to 100 scale (0 no effect, 100 complete control) after 13 to 15 days; for Plant response rating, Sedge, Umbrella: Flood (flooded paddy test), 13 to 15 days
Procedure, shortened: as §2

rice (Oryza sativa) = assay: Test B flooded paddy test; settings: for Plant response rating, Flood, Rice: 250 g ai/ha, flooded paddy test, visual rating on 0 to 100 scale (0 no effect, 100 complete control) after 13 to 15 days; for Plant response rating, Rice: Flood (flooded paddy test), 13 to 15 days
Procedure, shortened: as §2

[10] = system: ducksalad (Heteranthera limosa); assay: Test B flooded paddy test; settings: for Plant response rating, Flood, Ducksalad: 250 g ai/ha, flooded paddy test, visual rating on 0 to 100 scale (0 no effect, 100 complete control) after 13 to 15 days; for Plant response rating, Ducksalad: Flood (flooded paddy test), 13 to 15 days
Procedure, shortened: as §2

[11] = Postemergence, 125 g ai/ha, visual injury, 0 to 100 scale (0 no effect, 100 complete control), approx. ten days
[12] = Postemergence, 500 g ai/ha, 0 to 100 scale, 0 = no effect, 100 = complete control, approx. ten days
[13] = Preemergence, 125 g ai/ha, 0 to 100 scale, 0 = no effect, 100 = complete control
[14] = Preemergence, 500 g ai/ha, visual injury, 0 to 100 scale (0 no effect, 100 complete control), approx. ten days
[15] = 62 g ai/ha, scale 0 to 100, 0 is no effect, 100 is complete control
[16] = 31 g ai/ha, scale of 0 to 100 where 0 is no effect and 100 is complete control
[17] = 125 g ai/ha, scale 0 to 100, 0 is no effect, 100 is complete control
[18] = Postemergence, 125 g ai/ha, 0 to 100 scale where 0 is no effect and 100 is complete control
[19] = 62 g ai/ha, scale of 0 to 100 where 0 is no effect and 100 is complete control
[20] = Flood, 31 g ai/ha, scale 0 to 100 (0 no effect, 100 complete control)

Structure (SMILES): Cc1ccc(-n2c(-c3ccccc3)ncc(C(=O)C3=C(O)CCCC3=O)c2=O)c(C)c1 [Compound 28]
- Morningglory plant response rating [1, 11]: 0
- Plant response rating, Morningglory [1, 12]: 10
- Plant response rating, Morningglory [1, 13]: 20
- Plant response rating, Morningglory [1, 14]: 80
- Barnyardgrass plant response rating [2, 11]: 30
- Plant response rating, Barnyardgrass [2, 12]: 90
- Plant response rating, Barnyardgrass [2, 13]: 10
- Plant response rating, Barnyardgrass [2, 14]: 70
- Velvetleaf plant response rating [3, 11]: 100
- Plant response rating, Velvetleaf [3, 12]: 100
- Plant response rating, Velvetleaf [3, 13]: 20
- Plant response rating, Velvetleaf [3, 14]: 80
- Corn plant response rating (corn (Zea mays); [11]): 0
- Plant response rating, Corn (corn (Zea mays); [12]): 0
- Plant response rating, Corn (corn (Zea mays); [13]): 0
- Plant response rating, Corn (corn (Zea mays); [14]): 0
- Wheat plant response rating [4, 11]: 0
- Plant response rating, Wheat [4, 12]: 0
- Plant response rating, Wheat [4, 13]: 0
- Plant response rating, Wheat [4, 14]: 0
- Crabgrass, Large plant response rating [5, 11]: 40
- Plant response rating, Crabgrass, Large [5, 12]: 80
- Plant response rating, Crabgrass, Large [5, 13]: 20
- Plant response rating, Crabgrass, Large [5, 14]: 60
- Pigweed plant response rating [6, 11]: 100
- Plant response rating, Pigweed [6, 12]: 100
- Plant response rating, Pigweed [6, 13]: 80
- Plant response rating, Pigweed [6, 14]: 100
- Foxtail, Giant plant response rating [7, 11]: 30
- Plant response rating, Foxtail, Giant [7, 12]: 80
- Plant response rating, Foxtail, Giant [7, 13]: 0
- Plant response rating, Foxtail, Giant [7, 14]: 30
- Plant response rating, Flood, Barnyardgrass [8]: 20
- Plant response rating, Barnyardgrass [8, 15]: 10
- Plant response rating, Flood, Sedge, Umbrella [9]: 80
- Plant response rating, Sedge, Umbrella [9, 15]: 70
- Plant response rating, Flood, Rice (rice (Oryza sativa)): 0
- Plant response rating, Rice (rice (Oryza sativa); [15]): 0
- Plant response rating, Flood, Ducksalad [10]: 85
- Plant response rating, Ducksalad [10, 15]: 70

Structure (SMILES): Cc1ccccc1-n1c(-c2ccccc2)ncc(C(=O)C2=C(O)CCCC2=O)c1=O [Compound 12]
- Morningglory plant response rating [1, 11]: 100
- Plant response rating, Morningglory [1, 12]: 100
- Plant response rating, Morningglory [1, 13]: 30
- Plant response rating, Morningglory [1, 14]: 90
- Barnyardgrass plant response rating [2, 11]: 90
- Plant response rating, Barnyardgrass [2, 12]: 90
- Plant response rating, Barnyardgrass [2, 13]: 10
- Plant response rating, Barnyardgrass [2, 14]: 70
- Velvetleaf plant response rating [3, 11]: 100
- Plant response rating, Velvetleaf [3, 12]: 100
- Plant response rating, Velvetleaf [3, 13]: 70
- Plant response rating, Velvetleaf [3, 14]: 90
- Corn plant response rating (corn (Zea mays); [11]): 40
- Plant response rating, Corn (corn (Zea mays); [12]): 80
- Plant response rating, Corn (corn (Zea mays); [13]): 0
- Plant response rating, Corn (corn (Zea mays); [14]): 0
- Wheat plant response rating [4, 11]: 0
- Plant response rating, Wheat [4, 12]: 0
- Plant response rating, Wheat [4, 13]: 0
- Plant response rating, Wheat [4, 14]: 0
- Crabgrass, Large plant response rating [5, 11]: 90
- Plant response rating, Crabgrass, Large [5, 12]: 100
- Plant response rating, Crabgrass, Large [5, 13]: 50
- Plant response rating, Crabgrass, Large [5, 14]: 90
- Pigweed plant response rating [6, 11]: 100
- Plant response rating, Pigweed [6, 12]: 100
- Plant response rating, Pigweed [6, 13]: 80
- Plant response rating, Pigweed [6, 14]: 100
- Foxtail, Giant plant response rating [7, 11]: 90
- Plant response rating, Foxtail, Giant [7, 12]: 90
- Plant response rating, Foxtail, Giant [7, 13]: 20
- Plant response rating, Foxtail, Giant [7, 14]: 90
- Plant response rating, Flood, Barnyardgrass [8]: 0
- Plant response rating, Barnyardgrass [8, 16]: 0
- Plant response rating, Barnyardgrass [8, 15]: 0
- Plant response rating, Barnyardgrass [8, 17]: 0
- Plant response rating, Flood, Sedge, Umbrella [9]: 65
- Plant response rating, Sedge, Umbrella [9, 16]: 20
- Plant response rating, Sedge, Umbrella [9, 15]: 40
- Plant response rating, Sedge, Umbrella [9, 17]: 50
- Plant response rating, Flood, Rice (rice (Oryza sativa)): 0
- Plant response rating, Rice (rice (Oryza sativa); [16]): 0
- Plant response rating, Rice (rice (Oryza sativa); [15]): 0
- Plant response rating, Rice (rice (Oryza sativa); [17]): 0
- Plant response rating, Flood, Ducksalad [10]: 55
- Plant response rating, Ducksalad [10, 16]: 0
- Plant response rating, Ducksalad [10, 15]: 25
- Plant response rating, Ducksalad [10, 17]: 35

Structure (SMILES): CC(C)n1c(-c2ccccc2)ncc(C(=O)C2=C(O)CCCC2=O)c1=O [Compound 95]
- Plant response rating, Morningglory [1, 18]: 100
- Plant response rating, Morningglory [1, 12]: 100
- Plant response rating, Morningglory [1, 13]: 70
- Plant response rating, Morningglory [1, 14]: 90
- Plant response rating, Barnyardgrass [2, 18]: 80
- Plant response rating, Barnyardgrass [2, 12]: 90
- Plant response rating, Barnyardgrass [2, 13]: 40
- Plant response rating, Barnyardgrass [2, 14]: 80
- Plant response rating, Velvetleaf [3, 18]: 100
- Plant response rating, Velvetleaf [3, 12]: 100
- Plant response rating, Velvetleaf [3, 13]: 90
- Plant response rating, Velvetleaf [3, 14]: 100
- Plant response rating, Corn (corn (Zea mays); [18]): 0
- Plant response rating, Corn (corn (Zea mays); [12]): 10
- Plant response rating, Corn (corn (Zea mays); [13]): 0
- Plant response rating, Corn (corn (Zea mays); [14]): 0
- Plant response rating, Wheat [4, 18]: 0
- Plant response rating, Wheat [4, 12]: 0
- Plant response rating, Wheat [4, 13]: 0
- Plant response rating, Wheat [4, 14]: 0
- Plant response rating, Crabgrass, Large [5, 18]: 90
- Plant response rating, Crabgrass, Large [5, 12]: 90
- Plant response rating, Crabgrass, Large [5, 13]: 50
- Plant response rating, Crabgrass, Large [5, 14]: 90
- Plant response rating, Pigweed [6, 18]: 100
- Plant response rating, Pigweed [6, 12]: 100
- Plant response rating, Pigweed [6, 13]: 90
- Plant response rating, Pigweed [6, 14]: 100
- Plant response rating, Foxtail, Giant [7, 18]: 70
- Plant response rating, Foxtail, Giant [7, 12]: 90
- Plant response rating, Foxtail, Giant [7, 13]: 30
- Plant response rating, Foxtail, Giant [7, 14]: 60
- Plant response rating, Flood, Barnyardgrass [8]: 70
- Plant response rating, Barnyardgrass [8, 19]: 35
- Plant response rating, Barnyardgrass [8, 17]: 65
- Barnyardgrass plant response rating [8, 20]: 20
- Plant response rating, Flood, Sedge, Umbrella [9]: 75
- Plant response rating, Sedge, Umbrella [9, 19]: 20
- Plant response rating, Sedge, Umbrella [9, 17]: 50
- Sedge, Umbrella plant response rating [9, 20]: 0
- Plant response rating, Flood, Rice (rice (Oryza sativa)): 30
- Plant response rating, Rice (rice (Oryza sativa); [19]): 20
- Plant response rating, Rice (rice (Oryza sativa); [17]): 30
- Rice plant response rating (rice (Oryza sativa); [20]): 0
- Plant response rating, Flood, Ducksalad [10]: 20
- Plant response rating, Ducksalad [10, 19]: 0
- Plant response rating, Ducksalad [10, 17]: 0
- Ducksalad plant response rating [10, 20]: 0
